Assay results published in patent publication US10214724B2, “Methods for differentiation of human pluripotent stem cells to brain microvascular endothelial cells” (Wisconsin Alumni Research Foundation, priority 2016, dated 2019).

How the values were obtained:
[1] = test system: IMR90-4 induced pluripotent stem cells; test: Brachyury expression after CHIR99021 treatment (immunostaining, flow cytometry); type: cell-based, human; conditions: 6 μM, 24 hr treatment in DeSR1; IMR90-4 iPSCs
Protocol: Given the roles of canonical Wnt signaling in both mesoderm specification and BBB development, we first treated hPSCs with CHIR99021, a GSK-3β inhibitor and Wnt agonist, to direct hPSCs to mesoderm-derived endothelial progenitors. Prior to treatment, IMR90-4 induced pluripotent stem cells (iPSCs) were seeded on a Matrigel-coated six-well plate at a density of 35×10^3 cells/cm^2 and expanded in an undifferentiated state for three days in mTeSR1™ (FIG. 1A). […] After 24 hours, the medium was removed and cells were transitioned to DeSR2 (DeSR1 plus B27 supplement) for another five days with daily medium changes. At day 0, pluripotency was verified by OCT4, NANOG and TRA-1-60 immunostaining (FIGS. 1B-D). After 24 hr of CHIR99021 treatment, almost 100% of the cells expressed brachyury, assessed by immunostaining (FIG. 1E) and flow cytometry (FIG. 1F), indicating progression to primitive streak. […] At day 4, more than 90% of the cells expressed the intermediate mesoderm marker PAX2 (FIGS. 1G, 1H) and PAX2 expression peaked at day 6 (FIG. 5). […]
Cells were dissociated with Accutase™ and fixed in 1% PFA for 15 min at room temperature, then washed with 0.5% BSA (Bio-Rad) plus 0.1% Triton-X100 three times. […] Data were collected on a FACSCaliber flow cytometer (Beckton Dickinson) and analyzed using FlowJo. […]

[2] = test system: tight junction related genes TJP1, CLDN5 and OCLN and efflux transporters ABCG2, ABCC1, and ABCB1; test: Quantitative RT-PCR of tight junction and transporter genes with or without RA; type: cell-based, human; conditions: 10 μM RA day 6 to day 8; qPCR at day 8
Protocol: Total RNA was extracted with the RNeasy mini kit (QIAGEN) and treated with DNase (QIAGEN). 1 μg total RNA was reverse transcribed into cDNA via Oligo (dT) with Superscript III Reverse Transcriptase (Invitrogen). Real-time quantitative PCR was done in triplicate with iQSYBR Green™ SuperMix (Bio-Rad). GAPDH was used as an endogenous housekeeping control.

hPSC-derived BMECs [3] = test: TEER of hPSC-derived BMECs on Transwells; type: cell-based, human; conditions: cells differentiated in the presence of RA; replated day 8, measured at day 10
Protocol: BMECs were differentiated as shown in FIG. 1A in the presence or absence of RA, as indicated. (A) At day 8 expression of tight junction and transporter genes was assessed by qPCR. (B) Flow cytometry for CD31 expression was performed at days 6 and 8. (C) Pgp expression was quantified by flow cytometry at day 10. At day 6, medium was switched to hESFM containing or lacking RA, as indicated. (D) At day 8, cells were replated onto Matrigel®-coated Transwell® membranes at 10^6 cells/cm^2 in the presence or absence of 10 μM Y27632 (ROCK inhibitor). Y27632 was added to increase attachment (Pipparelli et al., PloS one 2013, 8:e62095) of cells differentiated in the absence of RA and permit confluent monolayer formation. TEER was measured at day 10, two days after replating (D). (E, G) Occludin and (F, G) ZO-1 expression and localization were assessed by flow cytometry and immunostaining at day 10. Red arrows indicate non-uniform occludin or ZO-1. Claudin-5 expression at day 10 was assessed by flow cytometry (H, I). (I) At day 10, expression level of claudin-5 in BMECs differentiated in the presence or absence of RA were assessed by flow cytometry. (J) Localization and expression of claudin-5 of cells differentiated in the absence of RA was determined via immunostaining (white arrows indicate non-positive claudin-5 and red arrows indicate discontinuous claudin-5). […]

hPSC-derived BMECs [4] = test: Flow cytometry of BMEC marker proteins (claudin-5, Pgp, occludin, ZO-1) with or without RA; type: cell-based, human
Source text: Data were collected on a FACSCaliber flow cytometer (Beckton Dickinson) and analyzed using FlowJo.

hPSC-derived BMECs [5] = test: ICAM-1 induction by TNF-α; conditions: 10 ng/mL TNF-α for 16 hours; day 10 hPSC-derived BMECs
Protocol: (D-F) ICAM-1 induction in hPSC-derived BMECs. hPSC-derived BMECs at day 10 were treated with 10 ng/mL of TNF-α for 16 hours. Cells were stained for ICAM-1 (D) before and (E) after TNF-α treatment. (F) Cells were dissociated or dissociated with Accutase™ and ICAM-1 expression quantified by flow cytometry before and after TNF-α treatment. […] Data were collected at least from three independent samples and are represented as mean±SEM. **p<0.01, ***p<0.001.

Work on Cc1c[nH]c(-c2cnc(NCCNc3ccc(C#N)cn3)nc2-c2ccc(Cl)cc2Cl)n1 [CHIR99021] yielded a cells expressing brachyury [1] of ~100%.

With CC1=C(/C=C/C(C)=C/C=C/C(C)=C/C(=O)O)C(C)(C)CCC1 [RA, retinoic acid] the “expression of TJP1, CLDN5, OCLN, ABCG2, ABCC1 and ABCB1 in cells exposed to RA vs. lacking RA” value [2] was 3-20 fold, the TEER (hPSC-derived BMECs [3]) was ~4000 Ω·cm^2 and the “cells expressing claudin-5” value (hPSC-derived BMECs [4]; RA-treated cells, day 10, flow cytometry (around 60% in the absence of RA)) was 100%. The “cells expressing Pgp” value (hPSC-derived BMECs [4]; differentiated in the presence of RA, day 10, flow cytometry) was ~100%.

For TNF-α, the ICAM-1 expression (hPSC-derived BMECs [5]) was “upregulation”.
